According to publication PMC12801355, “Peptide Amphiphiles Hitchhike on Endogenous Biomolecules for Enhanced Cancer Imaging and Therapy” (Advanced Materials (Deerfield Beach, Fla.), 2025):
Where a SMILES comes first, the peptide text is derived from it. The star is where a group is joined. Palmitoyl = CCCCCCCCCCCCCCCC(=O)*

Columns and labels:
Experiment in all cases: Mass spectrometry of proteins pulled down with biotinylated SA‐E (SA‐Eb) from human plasma
Type in all cases: binding
human plasma proteins [1] = target: T1, human plasma proteins (Homo sapiens, UniProt P04114)
T1 construct: incubated with 50% pooled human plasma at 37 °C for 2 h; from tissue; host or cells: pooled human plasma (50%)
Procedure: (§1) Samples were prepared for mass spectrometry analysis via a pull‐down of a biotinylated version of the SA‐E probe (SA‐Eb, 100 µM) incubated with 50% pooled human plasma at 37 °C for 2 h. Before incubation with the SA‐Eb‐plasma mixture, magnetic streptavidin‐coated beads (Dynabeads MyOne Streptavidin T1, Invitrogen, 65601) were washed with PBS (10 mM, pH 7.4) then blocked with 1% casein equal to the total initial volume of beads for 15 min at room temperature. After blocking, beads were washed again with PBS. Beads were then combined with SA‐Eb‐plasma solution, 25 µL beads to 200 µL mixture. This mixture was then incubated at room temperature for 30 min. After incubation, the remaining solution was removed, and the beads were washed five times with PBS. Bound SA‐Eb was eluted from beads in 30 µL 0.5% Triton X‐100 solution. Magnetic beads were then removed, and the elution was collected for analysis. For plasma control, the incubation with SA‐Eb step was skipped, and 50% plasma in PBS was incubated with beads and washed and eluted using the same method as the SA‐Eb‐plasma solution. The elution solutions were then analyzed by the Proteomics Shared Resource facility at Oregon Health & Science University (See Supporting Information for details).
(§2) Sample Preparation. Eluted plasma samples were dried down and stored at -80°C. Samples were thawed at room temperature for 10 min, and 75 µL of SDS protein extraction buffer (5% SDS, 50 mM […]; TEAB) was added to each sample. Samples were shaken in a Thermo mixer for 10 minutes at room temperature and centrifuged at 10,000 g for 5 min. Each sample was transferred from a 0.5 mL tube to a 1.5 mL LoBind centrifuge tube. Samples were reduced by adding 3.4 µL of 0.5 M dithiothreitol and incubated at 95 °C for 10 min. Samples were alkylated by the addition of 6.8 µL of 0.5 M iodoacetamide and were incubated at room temperature for 30 min in the dark. Samples were then acidified by the addition of 8.52 µL of 12% phosphoric acid, and 562 µL of SDS protein binding buffer (90% methanol, 100 mM TEAB, pH 7.51). Samples were transferred 165 µL at a time to S-trap micro columns (Protifi, Farmingdale, NY) and inserted into 1.5 mL of polypropylene tubes. Samples were centrifuged at 4,000 g for 3 min between each addition of the sample. S-trap columns were washed 6 times using 150 µL of 90% methanol containing 100 mM of TEAB followed by centrifugation at 4,000g for 3 min between each wash step. S-trap columns containing the bound sample proteins were transferred to 1.5 mL LoBind centrifuge tubes and 40 µL of 80 ng/µL sequencing grade modified trypsin (Pierce TM Trypsin Protease MS-Grade, XG348166) in 50 mM TEAB was added. S-trap columns were loosely capped, and digestion was performed at 37°C overnight in a humidified chamber.
(§3) After completion of digestion, peptides were eluted by sequential addition of 40 µL of TEAB, 40 µL of 0.2% aqueous formic acid, and 40 µl of 50% acetonitrile, 0.2% formic acid, with centrifugation at 4,000 g for 4 min between each addition of elution buffer. The elution fractions were combined and then dried by vacuum centrifugation. Samples were reconstituted by adding 20 µL of 5% formic acid, shaking at 37 °C, and spinning at 15,000 g for 5 min. The supernatant of each sample was transferred to an auto-sample vial.
(§4) Data analysis. Mass spectrometry data from all samples were processed using COMET/PAWS against Uniprot_Human_database. Comet (v. 2016.01, rev. 3)^8 was used to search MS2 Spectra against a January 2023 version of canonical FASTA protein database containing human uniprot sequences, and concatenated sequence-reversed entries to estimate error thresholds and 179 common contaminant sequences and their reversed forms. The database processing was performed using python scripts available at https://github.com/pwilmart/fasta_utilities.git and Comet results were processed using the PAW pipeline2 from https://github.com/pwilmart/PAW_pipeline.git.

human plasma proteins [2] = target: T2, human plasma proteins (Homo sapiens, UniProt P02647)
T2 construct: incubated with 50% pooled human plasma at 37 °C for 2 h; from tissue; host or cells: pooled human plasma (50%)
Procedure: as §1, §2, §3, §4

human plasma proteins [3] = target: T3, human plasma proteins (Homo sapiens, UniProt P02652)
T3 construct: incubated with 50% pooled human plasma at 37 °C for 2 h; from tissue; host or cells: pooled human plasma (50%)
Procedure: as §1, §2, §3, §4

human plasma proteins [4] = target: T4, human plasma proteins (Homo sapiens, UniProt O14791)
T4 construct: incubated with 50% pooled human plasma at 37 °C for 2 h; from tissue; host or cells: pooled human plasma (50%)
T4 sequence (O14791 28-398): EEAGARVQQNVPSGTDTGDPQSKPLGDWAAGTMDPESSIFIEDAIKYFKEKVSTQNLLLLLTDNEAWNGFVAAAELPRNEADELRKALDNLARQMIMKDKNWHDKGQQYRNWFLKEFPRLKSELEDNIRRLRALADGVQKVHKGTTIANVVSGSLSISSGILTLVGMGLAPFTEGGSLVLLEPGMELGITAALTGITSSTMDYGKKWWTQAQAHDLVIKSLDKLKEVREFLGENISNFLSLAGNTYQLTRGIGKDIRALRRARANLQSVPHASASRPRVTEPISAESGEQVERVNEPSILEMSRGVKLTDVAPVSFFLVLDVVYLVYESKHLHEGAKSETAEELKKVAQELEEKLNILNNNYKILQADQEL
Procedure: as §1, §2, §3, §4

human plasma proteins [5] = target: T5, human plasma proteins (Homo sapiens, UniProt P02654)
T5 construct: incubated with 50% pooled human plasma at 37 °C for 2 h; from tissue; host or cells: pooled human plasma (50%)
T5 sequence (P02654 27-83): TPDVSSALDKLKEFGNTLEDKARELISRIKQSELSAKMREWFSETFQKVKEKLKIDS
Procedure: as §1, §2, §3, §4

human plasma proteins [6] = target: T6, human plasma proteins (Homo sapiens, UniProt P05090)
T6 construct: incubated with 50% pooled human plasma at 37 °C for 2 h; from tissue; host or cells: pooled human plasma (50%)
Procedure: as §1, §2, §3, §4

human plasma proteins [7] = target: T7, human plasma proteins (Homo sapiens, UniProt P02656)
T7 construct: incubated with 50% pooled human plasma at 37 °C for 2 h; from tissue; host or cells: pooled human plasma (50%)
Procedure: as §1, §2, §3, §4

human plasma proteins [8] = target: T8, human plasma proteins (Homo sapiens, UniProt O95445)
T8 construct: incubated with 50% pooled human plasma at 37 °C for 2 h; from tissue; host or cells: pooled human plasma (50%)
Procedure: as §1, §2, §3, §4

T8 sequence (O95445 whole entry): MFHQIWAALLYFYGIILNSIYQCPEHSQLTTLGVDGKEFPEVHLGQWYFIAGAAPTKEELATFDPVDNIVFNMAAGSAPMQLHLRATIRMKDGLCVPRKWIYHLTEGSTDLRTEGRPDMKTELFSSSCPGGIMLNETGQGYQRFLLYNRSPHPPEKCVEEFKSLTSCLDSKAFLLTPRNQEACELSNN
T1 sequence (P04114 28-4563): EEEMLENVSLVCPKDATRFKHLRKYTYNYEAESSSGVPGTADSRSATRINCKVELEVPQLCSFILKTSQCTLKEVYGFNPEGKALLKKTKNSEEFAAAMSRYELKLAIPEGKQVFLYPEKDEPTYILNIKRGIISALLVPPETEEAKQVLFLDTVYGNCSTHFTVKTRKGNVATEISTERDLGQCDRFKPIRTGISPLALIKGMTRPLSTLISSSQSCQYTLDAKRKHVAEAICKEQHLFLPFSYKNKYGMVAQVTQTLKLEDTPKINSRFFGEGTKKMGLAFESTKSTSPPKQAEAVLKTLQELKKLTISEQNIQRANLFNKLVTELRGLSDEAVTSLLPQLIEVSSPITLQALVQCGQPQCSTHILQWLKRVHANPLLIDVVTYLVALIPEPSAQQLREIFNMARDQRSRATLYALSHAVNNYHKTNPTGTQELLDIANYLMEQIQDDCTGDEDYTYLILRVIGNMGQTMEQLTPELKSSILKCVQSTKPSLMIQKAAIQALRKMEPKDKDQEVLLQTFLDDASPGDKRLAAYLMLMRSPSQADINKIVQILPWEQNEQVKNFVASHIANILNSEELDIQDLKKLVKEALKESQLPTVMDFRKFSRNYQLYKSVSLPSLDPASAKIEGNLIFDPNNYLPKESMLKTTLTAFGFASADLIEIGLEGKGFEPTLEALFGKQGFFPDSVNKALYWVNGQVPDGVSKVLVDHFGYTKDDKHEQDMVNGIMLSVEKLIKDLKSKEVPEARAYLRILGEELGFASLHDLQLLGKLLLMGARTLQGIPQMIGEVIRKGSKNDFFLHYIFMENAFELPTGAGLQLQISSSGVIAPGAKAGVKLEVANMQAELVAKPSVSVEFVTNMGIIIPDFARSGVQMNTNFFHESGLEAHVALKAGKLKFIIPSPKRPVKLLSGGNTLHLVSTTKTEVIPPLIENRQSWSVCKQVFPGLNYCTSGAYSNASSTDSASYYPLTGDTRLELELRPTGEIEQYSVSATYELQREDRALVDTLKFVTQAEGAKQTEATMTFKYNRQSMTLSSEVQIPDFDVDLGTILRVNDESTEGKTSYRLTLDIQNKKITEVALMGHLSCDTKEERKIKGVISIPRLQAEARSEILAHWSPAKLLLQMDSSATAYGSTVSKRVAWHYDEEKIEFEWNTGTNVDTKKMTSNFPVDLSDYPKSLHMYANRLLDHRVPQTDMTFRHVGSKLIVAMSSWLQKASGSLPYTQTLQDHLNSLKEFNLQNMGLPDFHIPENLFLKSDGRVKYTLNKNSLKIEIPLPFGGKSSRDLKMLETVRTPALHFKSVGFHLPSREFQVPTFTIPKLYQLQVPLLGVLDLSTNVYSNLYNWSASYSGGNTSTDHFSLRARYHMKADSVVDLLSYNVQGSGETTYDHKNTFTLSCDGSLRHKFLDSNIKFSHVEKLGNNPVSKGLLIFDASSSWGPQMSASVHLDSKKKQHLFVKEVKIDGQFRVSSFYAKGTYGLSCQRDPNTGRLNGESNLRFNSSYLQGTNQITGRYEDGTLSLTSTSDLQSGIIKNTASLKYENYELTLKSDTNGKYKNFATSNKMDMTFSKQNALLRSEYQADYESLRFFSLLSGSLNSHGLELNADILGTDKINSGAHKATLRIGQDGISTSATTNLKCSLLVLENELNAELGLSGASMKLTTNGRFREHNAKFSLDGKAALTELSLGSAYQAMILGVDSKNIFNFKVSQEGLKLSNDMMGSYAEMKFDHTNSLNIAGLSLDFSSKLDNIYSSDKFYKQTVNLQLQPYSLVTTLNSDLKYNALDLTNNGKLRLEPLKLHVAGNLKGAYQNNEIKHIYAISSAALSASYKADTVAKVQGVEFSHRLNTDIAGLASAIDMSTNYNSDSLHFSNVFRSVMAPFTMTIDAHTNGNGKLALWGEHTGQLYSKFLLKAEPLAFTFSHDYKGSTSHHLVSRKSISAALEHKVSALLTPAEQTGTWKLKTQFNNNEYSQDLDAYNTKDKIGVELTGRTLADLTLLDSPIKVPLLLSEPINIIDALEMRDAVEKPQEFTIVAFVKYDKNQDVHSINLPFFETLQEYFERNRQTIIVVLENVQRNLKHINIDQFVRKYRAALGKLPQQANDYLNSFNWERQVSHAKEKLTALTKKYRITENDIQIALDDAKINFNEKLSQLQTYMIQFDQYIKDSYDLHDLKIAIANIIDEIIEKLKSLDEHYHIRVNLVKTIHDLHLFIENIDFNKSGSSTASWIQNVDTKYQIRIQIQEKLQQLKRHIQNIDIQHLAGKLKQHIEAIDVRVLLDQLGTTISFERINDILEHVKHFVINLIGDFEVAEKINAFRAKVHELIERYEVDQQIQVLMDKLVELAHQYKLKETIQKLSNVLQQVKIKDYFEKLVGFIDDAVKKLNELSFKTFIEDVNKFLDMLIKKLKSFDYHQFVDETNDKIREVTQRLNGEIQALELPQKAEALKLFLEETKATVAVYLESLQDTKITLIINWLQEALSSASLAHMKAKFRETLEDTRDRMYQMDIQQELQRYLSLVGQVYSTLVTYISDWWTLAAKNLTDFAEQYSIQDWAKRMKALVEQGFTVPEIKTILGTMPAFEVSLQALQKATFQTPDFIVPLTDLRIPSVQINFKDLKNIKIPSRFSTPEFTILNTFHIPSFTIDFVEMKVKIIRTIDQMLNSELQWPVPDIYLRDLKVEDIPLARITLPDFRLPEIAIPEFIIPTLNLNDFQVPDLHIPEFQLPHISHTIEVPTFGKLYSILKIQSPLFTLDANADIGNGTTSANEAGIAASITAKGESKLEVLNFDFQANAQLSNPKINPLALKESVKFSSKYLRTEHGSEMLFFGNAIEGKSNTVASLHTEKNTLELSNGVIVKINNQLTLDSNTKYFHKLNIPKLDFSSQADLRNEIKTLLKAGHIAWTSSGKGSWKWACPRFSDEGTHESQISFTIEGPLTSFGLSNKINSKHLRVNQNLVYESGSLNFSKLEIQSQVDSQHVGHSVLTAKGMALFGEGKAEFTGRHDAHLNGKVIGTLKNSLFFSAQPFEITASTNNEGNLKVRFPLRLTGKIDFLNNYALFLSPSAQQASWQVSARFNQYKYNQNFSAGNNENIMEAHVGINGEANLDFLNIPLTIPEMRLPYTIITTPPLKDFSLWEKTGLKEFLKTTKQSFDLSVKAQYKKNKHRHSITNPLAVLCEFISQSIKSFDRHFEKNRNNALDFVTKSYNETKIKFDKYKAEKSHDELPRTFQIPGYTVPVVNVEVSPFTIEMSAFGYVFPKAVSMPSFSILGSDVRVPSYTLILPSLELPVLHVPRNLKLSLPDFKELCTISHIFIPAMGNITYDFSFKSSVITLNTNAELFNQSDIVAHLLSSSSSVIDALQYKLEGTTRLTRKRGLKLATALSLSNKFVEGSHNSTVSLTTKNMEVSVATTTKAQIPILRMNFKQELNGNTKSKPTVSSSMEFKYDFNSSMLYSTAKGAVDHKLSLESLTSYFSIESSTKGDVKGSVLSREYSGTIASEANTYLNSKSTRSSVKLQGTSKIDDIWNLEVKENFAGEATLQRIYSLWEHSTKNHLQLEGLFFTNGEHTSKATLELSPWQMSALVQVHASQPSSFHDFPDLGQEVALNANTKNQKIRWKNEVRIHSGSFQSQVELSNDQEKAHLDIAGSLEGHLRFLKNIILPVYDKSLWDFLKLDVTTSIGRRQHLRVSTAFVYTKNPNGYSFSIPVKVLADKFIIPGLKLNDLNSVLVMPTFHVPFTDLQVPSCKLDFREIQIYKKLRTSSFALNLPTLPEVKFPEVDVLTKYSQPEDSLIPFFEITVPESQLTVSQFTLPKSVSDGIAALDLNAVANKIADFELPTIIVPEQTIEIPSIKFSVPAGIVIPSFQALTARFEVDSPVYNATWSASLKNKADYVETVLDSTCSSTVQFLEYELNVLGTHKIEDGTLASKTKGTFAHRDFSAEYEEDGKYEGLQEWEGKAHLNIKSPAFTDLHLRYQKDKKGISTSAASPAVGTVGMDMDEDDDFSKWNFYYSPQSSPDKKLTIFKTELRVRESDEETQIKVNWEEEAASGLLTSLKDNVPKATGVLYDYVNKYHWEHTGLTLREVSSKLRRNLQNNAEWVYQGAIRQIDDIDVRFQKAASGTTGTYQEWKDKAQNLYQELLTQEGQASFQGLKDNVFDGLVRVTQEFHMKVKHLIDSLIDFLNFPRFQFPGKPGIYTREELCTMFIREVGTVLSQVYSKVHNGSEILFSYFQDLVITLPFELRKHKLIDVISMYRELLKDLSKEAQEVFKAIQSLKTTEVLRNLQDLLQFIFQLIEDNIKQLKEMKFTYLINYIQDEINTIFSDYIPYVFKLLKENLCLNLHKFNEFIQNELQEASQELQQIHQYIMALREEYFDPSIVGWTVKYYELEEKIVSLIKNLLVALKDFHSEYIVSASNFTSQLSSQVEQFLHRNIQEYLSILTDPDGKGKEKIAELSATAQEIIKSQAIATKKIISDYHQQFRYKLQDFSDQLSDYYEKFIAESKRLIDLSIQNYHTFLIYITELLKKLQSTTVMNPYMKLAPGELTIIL
T7 sequence (P02656 21-99): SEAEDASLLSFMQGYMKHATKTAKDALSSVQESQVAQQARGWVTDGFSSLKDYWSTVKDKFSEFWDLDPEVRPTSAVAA
T6 sequence (P05090 21-189): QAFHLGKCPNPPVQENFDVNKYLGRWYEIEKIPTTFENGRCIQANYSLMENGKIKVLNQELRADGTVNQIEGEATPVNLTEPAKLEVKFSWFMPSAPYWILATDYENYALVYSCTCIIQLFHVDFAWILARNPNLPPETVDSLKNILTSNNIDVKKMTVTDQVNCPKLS
T3 sequence (P02652 19-100): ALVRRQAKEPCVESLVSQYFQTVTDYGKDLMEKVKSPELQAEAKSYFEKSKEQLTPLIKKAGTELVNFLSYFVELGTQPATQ

SMILES: CCCCCCCCCCCCCCCC(=O)NCC(=O)NCC(=O)NCC(=O)N[C@@H](Cc1c[nH]cn1)C(=O)N[C@@H](C)C(=O)N[C@@H](C)C(=O)N[C@@H](CC(N)=O)C(=O)NCC(=O)N[C@@H](CCC(=O)O)C(=O)N[C@@H](CCC(=O)O)C(=O)N[C@@H](CS)C(=O)N[C@@H](CCC(=O)O)C(=O)O [SA‐E] (Palmitoyl-GGGHAANGEECE-OH)
- Percentage, Apolipoprotein B-100 (human plasma proteins [1]; replicate 1): 4.7%
- Total Counts, Apolipoprotein B-100 (human plasma proteins [1]; replicate 1): 166
- Percentage, Apolipoprotein B-100 (human plasma proteins [1]; replicate 2): 6.0%
- Total Counts, Apolipoprotein B-100 (human plasma proteins [1]; replicate 2): 170
- Percentage, Apolipoprotein A-I (human plasma proteins [2]; replicate 1): 15.7%
- Total Counts, Apolipoprotein A-I (human plasma proteins [2]; replicate 1): 560
- Percentage, Apolipoprotein A-I (human plasma proteins [2]; replicate 2): 21.1%
- Total Counts, Apolipoprotein A-I (human plasma proteins [2]; replicate 2): 600
- Percentage, Apolipoprotein A-II (human plasma proteins [3]; replicate 1): 0.2%
- Total Counts, Apolipoprotein A-II (human plasma proteins [3]; replicate 1): 6
- Percentage, Apolipoprotein A-II (human plasma proteins [3]; replicate 2): 0.2%
- Total Counts, Apolipoprotein A-II (human plasma proteins [3]; replicate 2): 6
- Percentage, Apolipoprotein L1 (human plasma proteins [4]; replicate 1): 0.2%
- Total Counts, Apolipoprotein L1 (human plasma proteins [4]; replicate 1): 7
- Percentage, Apolipoprotein L1 (human plasma proteins [4]; replicate 2): 0.2%
- Total Counts, Apolipoprotein L1 (human plasma proteins [4]; replicate 2): 7
- Percentage, Apolipoprotein C-I (human plasma proteins [5]; replicate 1): 0.2%
- Total Counts, Apolipoprotein C-I (human plasma proteins [5]; replicate 1): 6
- Percentage, Apolipoprotein C-I (human plasma proteins [5]; replicate 2): 0.3%
- Total Counts, Apolipoprotein C-I (human plasma proteins [5]; replicate 2): 9
- Percentage, Apolipoprotein D (human plasma proteins [6]; replicate 1): 0.6%
- Total Counts, Apolipoprotein D (human plasma proteins [6]; replicate 1): 22
- Percentage, Apolipoprotein D (human plasma proteins [6]; replicate 2): 0.8%
- Total Counts, Apolipoprotein D (human plasma proteins [6]; replicate 2): 22
- Percentage, Apolipoprotein C-III (human plasma proteins [7]; replicate 1): 0.1%
- Total Counts, Apolipoprotein C-III (human plasma proteins [7]; replicate 1): 4
- Percentage, Apolipoprotein C-III (human plasma proteins [7]; replicate 2): 0.2%
- Total Counts, Apolipoprotein C-III (human plasma proteins [7]; replicate 2): 5
- Percentage, Apolipoprotein M (human plasma proteins [8]; replicate 1): 0.3%
- Total Counts, Apolipoprotein M (human plasma proteins [8]; replicate 1): 11
- Percentage, Apolipoprotein M (human plasma proteins [8]; replicate 2): 0.4%
- Total Counts, Apolipoprotein M (human plasma proteins [8]; replicate 2): 12
